Laboratory results as given in patent US20200069664A1, “METHODS FOR TREATING INFECTION” (Salix Pharmaceuticals, Ltd, priority 2010, published 2020).
In brackets after ≈: the same amount, converted by molar mass. Read-outs that look alike come from different tables or passages of the source.

Columns and labels:
EAEC strain O42 = assay type: cell-based, E. coli
EAEC = experiment: Effect of dialyzed supernatants of treated HEp-2 cells on EAEC adherence; assay type: cell-based, E. coli; conditions: HEp-2 treated 24 h with 64 mg/ml (so in the source); chambered slides with or without HEp-2 cells, 3 h
Protocol: Supernatant dialysis. HEp-2 cells were cultured in T-175 flasks as described above. […] After 24 h, the medium was collected, loaded into regenerated cellulose dialysis tubing (cutoff, 6 to 8 kDa; Spectra/Por, Rancho Domiguez, Calif.), and dialyzed against 4 liters of PBS changed four times. Each dialysis step lasted at least 6 h and was carried out at 4° C. Dialyzed supernatants were either used immediately in adherence assays or stored at −20° C. until use.
The effect of supernatants on EAEC adherence was determined by mixing EAEC with the dialyzed media from the different antibiotic (or control) treatment groups and adding the bacteria to HEp-2 cells cultured in chambered slides or to chambered slides with no HEp-2 cells. Adherence was visualized microscopically as described above.

HEp-2 cells = experiment: Cytokine array of supernatants of treated HEp-2 cells; conditions: 64 μg/ml, 24 h; Panomics array of 36 cytokines
C difficile isolates = experiment: In vitro susceptibility of C difficile isolates (agar dilution for rifaximin, Etest for rifampin)

SMILES: CO[C@H]1/C=C/O[C@@]2(C)Oc3c(C)c(O)c4c(O)c(c(/C=N/N5CCN(C)CC5)c(O)c4c3C2=O)NC(=O)/C(C)=C\C=C\[C@H](C)[C@H](O)[C@@H](C)[C@@H](O)[C@@H](C)[C@H](OC(C)=O)[C@@H]1C [Rifampin, rifampin]
- EAEC O42 adherence to pretreated HEp-2 cells (microscopy, stacked-brick pattern) (EAEC strain O42): adhered in the traditional stacked-brick formation
- Adherence of EAEC mixed with dialyzed supernatants from treated HEp-2 cells (EAEC): adhered to chambers independently of the presence of HEp-2 cells
- Cytokines detected in supernatants of treated HEp-2 cells (HEp-2 cells): same profile, except that MIPS was not detected
- MIC50 (C difficile isolates): < 0.002 mg/L
- MIC90 (C difficile isolates): 4 mg/L (≈ 4.86 µM)
- MIC50 (C difficile isolates; 359 C difficile isolates): <0.002 mg/L
- Resistant isolates, percent of 359 (C difficile isolates; resistance = MIC≥32 μg/mL, for rifaximin b194 says 'rifaximin alone'): 8%
